Source: ChEMBL document CHEMBL4619763 (J Nat Prod, 2020)

Assays:
[1] = system: Rattus norvegicus; test: Diuretic activity in normotensive Wistar rat assessed as urinary calcium excretion at 0.1 mg/kg, po administered via gavage after 8 hrs in presence of atropine (reference value: 5.93 to 6.87 mg/dl); assay type: functional
[2] = system: Rattus norvegicus; test: Diuretic activity in normotensive Wistar rat assessed as urinary chloride excretion at 0.1 mg/kg, po administered via gavage after 8 hrs in presence of hydrochlorothiazide (reference value: 135.10 to 143.70 mmol/L); assay type: functional
[3] = system: Rattus norvegicus; test: Diuretic activity in normotensive Wistar rat assessed as urine pH at 0.1 mg/kg, ip after 8 hrs (reference value: 6.05 +/- 0.22); assay type: functional
[4] = Anti-urolithic activity in synthetic urine assessed as reduction in CaOx crystal formation at 0.1 mg/mL in presence of sodium oxalate after 60 mins by Neubauer counting chamber method relative to control; assay type: functional; design: scale not given: the % may be the effect or the level left
[5] = system: Rattus norvegicus; test: Diuretic activity in normotensive Wistar rat assessed as urinary sodium excretion at 0.1 mg/kg, po administered via gavage after 8 hrs in presence of L-NAME (reference value: 61.82 to 80.81 mmol/L); assay type: functional
[6] = system: Rattus norvegicus; test: Diuretic activity in normotensive Wistar rat assessed as urinary potassium excretion at 1 mg/kg, po administered via gavage after 8 hrs (reference value: 22.39 to 24.21 mmol/L); assay type: ADME, organism-based; details: in vivo
[7] = Anti-urolithic activity in synthetic urine assessed as decrease in absorbance at 0.1 mg/mL after 30 mins relative to control; assay type: functional; design: scale not given: the % may be the effect or the level left

`C[C@@H]1O[C@@H](Oc2c(-c3ccc(O)cc3)oc3cc(O)cc(O)c3c2=O)[C@H](O)[C@H](O)[C@H]1O` [AFZELIN] showed an Activity [1] of 4.69 mg/dL, an Activity [2] of 333.4 mmol/L and a pH [3] of 5.89. For the same compound, the Activity [4] was 48.88%, the Activity [5] was 75.14 mmol/L and the Activity [6] was 22.5 mmol/L. The Activity [7] was 21.54%.
